# From PubChem BioAssay (NCI)
# “And” between values parts separate entries of the source, which are not always exact repeats. Equal entries are not always repeated.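 The compound was tested at five concentrations on cells cultured in 96-well plates, with a 48-hour exposure period. GI50 marks 50% less growth. The concentration for full growth arrest is given as TGI.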
# Experiments:
# Assay in all cases: DTP human tumour cell line panel, 48 h
# SF-539 CNS = test system: SF-539 CNS
# SNB-19 CNS = test system: SNB-19 CNS
# A549 NSCLC = test system: A549 NSCLC
# BT-549 breast = test system: BT-549 breast
# OVCAR-5 ovarian = test system: OVCAR-5 ovarian
# SK-MEL-28 melanoma = test system: SK-MEL-28 melanoma
# UACC-257 melanoma = test system: UACC-257 melanoma
# CCRF-CEM leukemia = test system: CCRF-CEM leukemia
# K-562 leukemia = test system: K-562 leukemia
# SK-MEL-5 melanoma = test system: SK-MEL-5 melanoma
# HS 578T breast = test system: HS 578T breast
# RXF 393 renal = test system: RXF 393 renal
# HOP-62 NSCLC = test system: HOP-62 NSCLC
# DU-145 prostate = test system: DU-145 prostate
# OVCAR-3 ovarian = test system: OVCAR-3 ovarian
# MDA-N = test system: MDA-N
# OVCAR-4 ovarian = test system: OVCAR-4 ovarian
# SK-OV-3 ovarian = test system: SK-OV-3 ovarian
# NCI-H460 lung = test system: NCI-H460 lung
# PC-3 prostate = test system: PC-3 prostate
# HCT-15 colon = test system: HCT-15 colon
# MALME-3M melanoma = test system: MALME-3M melanoma
# U251 CNS = test system: U251 CNS
# UO-31 renal = test system: UO-31 renal
# ACHN renal = test system: ACHN renal
# MCF7 breast = test system: MCF7 breast
# T-47D breast = test system: T-47D breast
# COLO 205 colon = test system: COLO 205 colon
# KM12 colon = test system: KM12 colon
# SR leukemia = test system: SR leukemia
# 786-0 renal = test system: 786-0 renal
# HL-60(TB) leukemia = test system: HL-60(TB) leukemia
# TK-10 renal = test system: TK-10 renal
# SNB-75 CNS = test system: SNB-75 CNS
# SF-268 CNS = test system: SF-268 CNS
# HT29 colon = test system: HT29 colon
# NCI/ADR-RES ovarian = test system: NCI/ADR-RES ovarian
# HCT-116 colon = test system: HCT-116 colon
# SK-MEL-2 melanoma = test system: SK-MEL-2 melanoma
# SN12C renal = test system: SN12C renal
# SW-620 colon = test system: SW-620 colon
# NCI-H23 lung = test system: NCI-H23 lung
# IGROV1 ovarian = test system: IGROV1 ovarian
# RPMI-8226 leukemia = test system: RPMI-8226 leukemia
# CAKI-1 renal = test system: CAKI-1 renal
# HOP-92 NSCLC = test system: HOP-92 NSCLC
# MDA-MB-231 breast = test system: MDA-MB-231 breast
# HCC-2998 colon = test system: HCC-2998 colon
# UACC-62 melanoma = test system: UACC-62 melanoma
# MDA-MB-435 = test system: MDA-MB-435
# M14 melanoma = test system: M14 melanoma
# LOX IMVI melanoma = test system: LOX IMVI melanoma
# MOLT-4 leukemia = test system: MOLT-4 leukemia
# SF-295 CNS = test system: SF-295 CNS
# OVCAR-8 ovarian = test system: OVCAR-8 ovarian
# NCI-H522 lung = test system: NCI-H522 lung
# EKVX NSCLC = test system: EKVX NSCLC
# NCI-H226 lung = test system: NCI-H226 lung
smiles,measurement,setting,value
COC1OC(COC(=O)NCCCCC(=O)C(F)(F)C(F)(F)C(F)(F)C(F)(F)C(F)(F)C(F)(F)C(F)(F)F)C(O)C(O)C1O (stereo not drawn),TGI,SF-539 CNS,29.5 µM and 34.2 µM
same,TGI,SNB-19 CNS,34 µM and 34.1 µM
same,TGI,A549 NSCLC,36.1 µM and 31 µM
same,TGI,BT-549 breast,31.4 µM and 31.9 µM
same,TGI,OVCAR-5 ovarian,32.9 µM and 32.3 µM
same,TGI,SK-MEL-28 melanoma,31 µM and 30.5 µM
same,TGI,UACC-257 melanoma,36.2 µM and 37.7 µM
same,GI50,CCRF-CEM leukemia,16.4 µM and 7.62 µM
same,TGI,CCRF-CEM leukemia,44 µM and 37.4 µM
same,TGI,K-562 leukemia,36.8 µM and 37.5 µM
same,TGI,SK-MEL-5 melanoma,25.8 µM and 24.3 µM
same,TGI,HS 578T breast,43.8 µM and 33.7 µM
same,TGI,RXF 393 renal,26.4 µM and 30.2 µM
same,TGI,HOP-62 NSCLC,32.1 µM and 30.1 µM
same,GI50,DU-145 prostate,34.8 µM and 4.86 µM
same,TGI,DU-145 prostate,> 100 µM and 29.9 µM
same,TGI,OVCAR-3 ovarian,29.2 µM and 28.1 µM
same,TGI,MDA-N,51.9 µM and 61.3 µM
same,TGI,OVCAR-4 ovarian,35.3 µM and 28.5 µM
same,TGI,SK-OV-3 ovarian,29.2 µM and 27.2 µM
same,TGI,NCI-H460 lung,36.3 µM and 49.5 µM
same,TGI,PC-3 prostate,25.9 µM and 26.5 µM
same,TGI,HCT-15 colon,33.1 µM and 38.3 µM
same,TGI,MALME-3M melanoma,44.3 µM and 47.3 µM
same,TGI,U251 CNS,39.7 µM and 24.6 µM
same,TGI,UO-31 renal,30.5 µM and 30.8 µM
same,TGI,ACHN renal,31.8 µM and 29.9 µM
same,TGI,MCF7 breast,33.6 µM and 33.4 µM
same,TGI,T-47D breast,39.1 µM and 32.5 µM
same,TGI,COLO 205 colon,45 µM and 39.7 µM
same,TGI,KM12 colon,37.1 µM and 48.7 µM
same,TGI,SR leukemia,> 100 µM
same,TGI,786-0 renal,31.4 µM and 30.1 µM
same,GI50,HL-60(TB) leukemia,24.9 µM
same,TGI,HL-60(TB) leukemia,> 100 µM
same,TGI,TK-10 renal,30 µM and 32 µM
same,TGI,SNB-75 CNS,29.3 µM and 27.6 µM
same,TGI,SF-268 CNS,30.8 µM and 37.1 µM
same,TGI,HT29 colon,27.4 µM and 35 µM
same,TGI,NCI/ADR-RES ovarian,61.8 µM and > 100 µM
same,TGI,HCT-116 colon,39.4 µM and 31.9 µM
same,TGI,SK-MEL-2 melanoma,40.1 µM and 40.3 µM
same,TGI,SN12C renal,40.2 µM and 43.5 µM
same,TGI,SW-620 colon,31.9 µM and 31.7 µM
same,TGI,NCI-H23 lung,40.4 µM and 34.1 µM
same,TGI,IGROV1 ovarian,30.9 µM and 27.4 µM
same,TGI,RPMI-8226 leukemia,> 100 µM
same,TGI,CAKI-1 renal,32.9 µM and 30 µM
same,GI50,HOP-92 NSCLC,14.2 µM and 2.27 µM
same,TGI,HOP-92 NSCLC,28.6 µM and 15.6 µM
same,TGI,MDA-MB-231 breast,42.3 µM and 40.2 µM
same,TGI,HCC-2998 colon,36.5 µM and 37.5 µM
same,TGI,UACC-62 melanoma,26.6 µM and 27.5 µM
same,TGI,MDA-MB-435,32.2 µM and 31.7 µM
same,TGI,M14 melanoma,29.7 µM and 29.4 µM
same,TGI,LOX IMVI melanoma,30.2 µM and 27.9 µM
same,GI50,MOLT-4 leukemia,12.5 µM and 4.13 µM
same,TGI,MOLT-4 leukemia,31.7 µM and 23.1 µM
same,TGI,SF-295 CNS,44.8 µM and 44.2 µM
CC(=O)OCC1OC(n2c(-c3ccc(Cl)cc3)cc(-c3ccccc3)c(C#N)c2=S)C(OC(C)=O)C(OC(C)=O)C1OC(C)=O (stereo not drawn),TGI,SF-539 CNS,14.6 µM
same,TGI,SNB-19 CNS,20.9 µM
same,TGI,A549 NSCLC,27.9 µM
same,TGI,BT-549 breast,17.8 µM
same,TGI,OVCAR-5 ovarian,35 µM
same,TGI,SK-MEL-28 melanoma,23.4 µM
same,TGI,OVCAR-8 ovarian,23 µM
same,TGI,K-562 leukemia,> 100 µM
same,TGI,SK-MEL-5 melanoma,23.5 µM
same,TGI,HS 578T breast,10.5 µM
same,TGI,NCI-H522 lung,60.1 µM
same,TGI,RXF 393 renal,26 µM
same,TGI,HOP-62 NSCLC,20.5 µM
same,TGI,EKVX NSCLC,31.9 µM
same,TGI,DU-145 prostate,35.6 µM
same,TGI,OVCAR-3 ovarian,22.4 µM
same,TGI,MDA-N,24.3 µM
same,TGI,OVCAR-4 ovarian,3.3 µM
same,TGI,SK-OV-3 ovarian,25.2 µM
same,TGI,NCI-H460 lung,17.9 µM
same,TGI,PC-3 prostate,23.3 µM
same,TGI,HCT-15 colon,> 100 µM
same,TGI,NCI-H226 lung,12 µM
same,TGI,MALME-3M melanoma,7.71 µM
same,TGI,U251 CNS,20.6 µM
same,TGI,UO-31 renal,40.1 µM
same,TGI,ACHN renal,26.2 µM
same,TGI,MCF7 breast,67.8 µM
same,TGI,T-47D breast,39.5 µM
same,TGI,COLO 205 colon,33 µM
same,TGI,KM12 colon,48.7 µM
same,TGI,SR leukemia,53 µM
same,TGI,786-0 renal,24.6 µM
same,TGI,HL-60(TB) leukemia,17.4 µM
same,TGI,TK-10 renal,42.2 µM
same,TGI,SNB-75 CNS,20.8 µM
same,TGI,SF-268 CNS,25.6 µM
same,TGI,HT29 colon,21.1 µM
same,TGI,NCI/ADR-RES ovarian,21 µM
same,TGI,HCT-116 colon,18.8 µM
same,TGI,SN12C renal,26.3 µM
same,TGI,SW-620 colon,14.7 µM
same,TGI,NCI-H23 lung,27.2 µM
same,TGI,IGROV1 ovarian,25.8 µM
same,TGI,RPMI-8226 leukemia,43.3 µM
same,TGI,CAKI-1 renal,26.9 µM
same,TGI,HOP-92 NSCLC,40.8 µM
same,TGI,MDA-MB-231 breast,15.7 µM
same,TGI,HCC-2998 colon,34.7 µM
same,TGI,MDA-MB-435,25.2 µM
same,TGI,M14 melanoma,16.4 µM
same,TGI,LOX IMVI melanoma,17.8 µM
same,TGI,MOLT-4 leukemia,85.9 µM
same,TGI,SF-295 CNS,23.6 µM
